One experiment has as its target D(2) dopamine receptor (Rattus norvegicus, UniProt P61169). Kind of experiment: The affinity for the Dopamine receptor D2 was assessed by the inhibition of [3H]-spiperone binding in rat striatal membranes in vitro. It is filed as cell membranes, Membrane.
The subject of experiment [1] is Rattus norvegicus. Kind of experiment: Stereotypies was scored by regression analysis, through intraperitoneal route of administration. The format is functional. The conditions noted are these: ip.
The subject of experiment [2] is Rattus norvegicus. Kind of experiment: Hyperactivity by regression analysis, through intraperitoneal route of administration. It is filed as functional. The conditions noted are these: ip.

Consider 14 compounds from ChEMBL document CHEMBL1124888 (J Med Chem, 1990).

By IC50 is commonly meant the point on the concentration scale where inhibition reaches its midpoint. By ED50 is commonly meant the dose at which the effect has come halfway, by size or by number of responders.

D(2) dopamine receptor, sequence (P61169 whole entry): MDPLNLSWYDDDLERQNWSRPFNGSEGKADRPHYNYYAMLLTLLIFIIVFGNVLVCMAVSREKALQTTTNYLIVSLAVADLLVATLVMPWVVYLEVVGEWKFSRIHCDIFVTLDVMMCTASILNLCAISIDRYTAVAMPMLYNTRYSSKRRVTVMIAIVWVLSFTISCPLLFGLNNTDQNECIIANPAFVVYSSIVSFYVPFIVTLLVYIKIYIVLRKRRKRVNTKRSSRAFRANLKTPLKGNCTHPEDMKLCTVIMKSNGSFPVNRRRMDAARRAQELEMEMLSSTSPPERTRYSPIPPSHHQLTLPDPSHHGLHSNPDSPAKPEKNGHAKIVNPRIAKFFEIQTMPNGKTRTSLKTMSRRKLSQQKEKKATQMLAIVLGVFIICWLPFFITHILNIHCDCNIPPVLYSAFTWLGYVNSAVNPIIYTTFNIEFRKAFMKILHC

With `CCN1CCCC1CNC(=O)c1cc(Br)c(OC)cc1OC` (stereo unspecified), the IC50 on D(2) dopamine receptor came out at 44 nM. In addition, the ED50 amounted to 10.7 µmol/kg in the experiment with Rattus norvegicus [1] and 3.2 µmol/kg in the experiment with Rattus norvegicus [2].

Compound `CCN1CCCC1CNC(=O)c1cc(Br)cc(O)c1OC` (stereo unspecified) displayed an IC50 on D(2) dopamine receptor of 10 nM. Besides, the ED50 with Rattus norvegicus [1] was 2.1 µmol/kg; in the experiment on Rattus norvegicus [2], 1.2 µmol/kg.

On to `CCN1CCCC1CNC(=O)c1cc(Br)ccc1OC` (stereo unspecified), for which, on D(2) dopamine receptor, the IC50 came to 46 nM. Further, the median effective dose (ED50) amounted to 6.7 µmol/kg in the experiment with Rattus norvegicus [1] and 3 µmol/kg with Rattus norvegicus [2].

For `CCN1CCC[C@H]1CNC(=O)c1cc(Br)cc2c1OCC2`, the results for the ED50 with Rattus norvegicus [1] and with Rattus norvegicus [2] were 4.7 µmol/kg and 2 µmol/kg, respectively.

The compound `COc1cc(Br)cc(C(=O)NC2CCN(Cc3ccccc3)CC2)c1OC` came in with an IC50 on D(2) dopamine receptor of 5 nM. Further, the ED50 in the experiment on Rattus norvegicus [1] came out at 0.24 µmol/kg; in the experiment with Rattus norvegicus [2], 0.28 µmol/kg.

On to `CCN1CCC[C@H]1CNC(=O)c1c(OC)ccc(Br)c1O`, for which the ED50 was 0.32 µmol/kg in the experiment on Rattus norvegicus [1] and 0.054 µmol/kg in the experiment on Rattus norvegicus [2].

In the case of `CCN1CCC[C@@H]1CNC(=O)c1cc(Br)cc(OC)c1OC`, at D(2) dopamine receptor, the IC50 was determined as 145 nM. Moreover, the ED50 in the experiment on Rattus norvegicus [1] and with Rattus norvegicus [2] was greater than 20 µmol/kg each time.

On to `CCN1CCC[C@H]1CNC(=O)c1c(O)c(Br)cc(OC)c1OC`, for which the ED50 in the experiment on Rattus norvegicus [1] came to 0.049 µmol/kg; in the experiment on Rattus norvegicus [2] it was 0.009 µmol/kg.

The compound `CCN1CCC[C@H]1CNC(=O)c1cc(Br)cc2c1OCCO2` registered an IC50 at D(2) dopamine receptor of 46 nM. For the same compound, the ED50 stood at 12.8 µmol/kg with Rattus norvegicus [1] and 3.8 µmol/kg with Rattus norvegicus [2].

The compound `CCN1CCCC1CNC(=O)c1cccc(OC)c1OC` (stereo unspecified) had an IC50 at D(2) dopamine receptor of 52 nM. Also, the ED50 with Rattus norvegicus [1] and with Rattus norvegicus [2] was roughly 10 µmol/kg throughout.

With `COc1cccc(C(=O)NC2CC3CCC(C2)N3Cc2ccccc2)c1OC` (stereo unspecified), the IC50 at D(2) dopamine receptor turned out to be 1.7 nM. Besides, the ED50 is 0.043 µmol/kg in the experiment on Rattus norvegicus [1] and 0.016 µmol/kg with Rattus norvegicus [2].

`CCN1CCCC1CNC(=O)c1cc(Br)cc(OC)c1O` (stereo unspecified) displayed an IC50 on D(2) dopamine receptor of 8210 nM.

With `CCN1CCC[C@H]1CNC(=O)c1c(O)c(Cl)cc(Cl)c1OC` [RACLOPRIDE], the ED50 came out at 1.8 µmol/kg in the experiment with Rattus norvegicus [1] and 0.13 µmol/kg in the experiment with Rattus norvegicus [2].

`CCN1CCC[C@H]1CNC(=O)c1cc(Br)cc(OC)c1OC`: the 50% inhibitory concentration (IC50) on D(2) dopamine receptor was 1.2 nM. In addition, the ED50 was 0.14 µmol/kg with Rattus norvegicus [1] and 0.002 µmol/kg in the experiment on Rattus norvegicus [2].
